{
  "source": "ChEMBL document CHEMBL1201862",
  "about": "“PubChem BioAssay data set” (2004)",
  "key": {"Orexin receptor type 2 [1]": {"biological_target": "T1, Orexin receptor type 2 (Homo sapiens, UniProt O43614)", "T1 sequence (O43614 whole entry)": "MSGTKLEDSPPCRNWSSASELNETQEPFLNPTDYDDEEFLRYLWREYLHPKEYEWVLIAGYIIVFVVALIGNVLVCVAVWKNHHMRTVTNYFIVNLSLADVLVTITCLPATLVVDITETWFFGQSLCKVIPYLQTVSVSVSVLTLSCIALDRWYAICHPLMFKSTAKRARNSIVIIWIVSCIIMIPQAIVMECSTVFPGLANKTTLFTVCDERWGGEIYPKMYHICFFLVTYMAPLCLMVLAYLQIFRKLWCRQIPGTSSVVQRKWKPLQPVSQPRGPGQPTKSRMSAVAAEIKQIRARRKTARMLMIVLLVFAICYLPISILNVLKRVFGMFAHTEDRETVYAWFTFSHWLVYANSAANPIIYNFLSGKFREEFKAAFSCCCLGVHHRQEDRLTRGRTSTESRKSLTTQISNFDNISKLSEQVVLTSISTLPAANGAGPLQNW", "assay": "Counterscreen assay for antagonists of the orexin 1 receptor (OX1R; HCRTR1): Homogeneous Time Resolved Fluorescence (HTRF)-based cell-based dose response assay for antagonists of the orexin 2 receptor (OX2R; HCRTR2), run by assay provider.", "type": "functional"}, "Orexin receptor type 2 [2]": {"biological_target": "T1, Orexin receptor type 2", "assay": "Counterscreen assay for antagonists of the orexin 1 receptor (OX1R; HCRTR1): Fluorescence-based cell-based dose response assay for antagonists of the orexin 2 receptor (OX2R; HCRTR2), run by assay provider.", "type": "functional"}, "[3]": {"assay": "growth suppression of beta-catenin-knockout colon cells, dose response, cell-based, HCT116, human colon tumor (AID 1045);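 further: HCT116 colon tumor cells with beta catenin knocked out; cells exposed to compound for 60 hours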", "type": "functional"}, "[4]": {"assay": "growth suppression of PTEN-null colon cells, dose response, cell-based, HCT116 PTEN knockout (AID 1047);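 further: HCT116 colon tumor cells with PTEN knocked out; cells exposed to compound for 60 hours before readout; potency for loss of cell viability measured by luminescence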", "type": "functional"}, "INS1": {"tested_on": "INS1", "assay": "beta cell apoptosis inhibitors, cytokine rescue, dose response, luminescence, retest (AID 449756);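 further: cell death triggered by IL-1 beta plus TNF-alpha plus IFN-gamma mixture; protective hits raise ATP signal compared with cytokine alone wells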", "type": "functional, cell-based", "conditions": "Rattus norvegicus"}, "CHO": {"tested_on": "CHO", "assay": "cytotoxicity in TLR9-MyD88 CHO cells, dose response, cytotoxicity control for TLR9-MyD88 binding inhibitor project, cell-based, luminescence (AID 588339);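 further: CHO cells stably coexpressing TLR9 and MyD88 fusions from primary screen; compound exposure lasted 48 hours before viability readout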", "type": "functional, hamster", "conditions": "Cricetulus griseus"}, "Vero": {"tested_on": "Vero", "assay": "Vero cell cytotoxicity, cytotoxicity control for flavivirus capping enzyme inhibitors (AID 588742)", "type": "functional", "conditions": "Chlorocebus sabaeus"}, "Large T antigen": {"biological_target": "Large T antigen (Simian virus 40, UniProt P03070)", "type": "functional, Betapolyomavirus macacae"}, "[5]": {"biological_target": "T2, Replicative DNA helicase DnaB (Mycobacterium tuberculosis, UniProt P9WMR3)", "T2 sequence (P9WMR3 whole entry)": "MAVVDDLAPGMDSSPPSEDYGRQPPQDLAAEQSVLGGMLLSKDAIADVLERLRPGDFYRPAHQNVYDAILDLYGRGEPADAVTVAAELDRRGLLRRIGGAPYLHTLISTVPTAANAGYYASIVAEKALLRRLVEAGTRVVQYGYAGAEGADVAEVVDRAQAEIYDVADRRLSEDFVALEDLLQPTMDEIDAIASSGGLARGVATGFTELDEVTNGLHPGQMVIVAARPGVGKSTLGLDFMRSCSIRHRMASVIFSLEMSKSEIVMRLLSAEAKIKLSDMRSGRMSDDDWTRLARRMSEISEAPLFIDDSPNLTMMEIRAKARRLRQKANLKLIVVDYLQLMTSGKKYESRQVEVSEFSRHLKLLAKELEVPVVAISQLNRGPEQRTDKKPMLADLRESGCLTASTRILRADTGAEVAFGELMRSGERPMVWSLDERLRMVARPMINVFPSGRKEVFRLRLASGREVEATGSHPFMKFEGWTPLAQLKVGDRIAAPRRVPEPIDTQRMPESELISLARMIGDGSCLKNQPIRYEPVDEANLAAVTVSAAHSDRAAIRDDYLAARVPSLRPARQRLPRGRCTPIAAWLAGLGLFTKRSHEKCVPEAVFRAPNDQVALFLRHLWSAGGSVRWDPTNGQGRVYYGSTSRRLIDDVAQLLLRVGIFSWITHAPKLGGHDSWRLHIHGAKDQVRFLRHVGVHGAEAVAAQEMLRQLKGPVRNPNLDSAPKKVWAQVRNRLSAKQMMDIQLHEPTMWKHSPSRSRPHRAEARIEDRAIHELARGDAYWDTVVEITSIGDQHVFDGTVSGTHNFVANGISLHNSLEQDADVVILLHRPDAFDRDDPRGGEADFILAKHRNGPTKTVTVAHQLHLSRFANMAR", "assay": "DnaB intein splicing inhibitors, dose response, biochemical, cell-free fluorescence (AID 449749)", "type": "functional"}, "BJ [6]": {"tested_on": "BJ", "assay": "cytotoxicity toward BJ-TERT fibroblasts, dose response, cell-based, RAS-independent, luminescence (AID 1933)", "type": "functional", "conditions": "Homo sapiens"}, "Fatty acid synthase [7]": {"biological_target": "T3, Fatty acid synthase (Homo sapiens, UniProt P49327)", "assay": "FAS thioesterase domain inhibitors, dose response, biochemical, kinetic fluorescence intensity (AID 624326);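 further: rate of fluorescence rise from hydrolysis of a fluorogenic O-methyl fluorescein ester substrate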", "type": "functional"}, "Protein RecA": {"biological_target": "T4, Protein RecA (Mycobacterium tuberculosis, UniProt P9WHJ3)", "T4 sequence (P9WHJ3 whole entry)": "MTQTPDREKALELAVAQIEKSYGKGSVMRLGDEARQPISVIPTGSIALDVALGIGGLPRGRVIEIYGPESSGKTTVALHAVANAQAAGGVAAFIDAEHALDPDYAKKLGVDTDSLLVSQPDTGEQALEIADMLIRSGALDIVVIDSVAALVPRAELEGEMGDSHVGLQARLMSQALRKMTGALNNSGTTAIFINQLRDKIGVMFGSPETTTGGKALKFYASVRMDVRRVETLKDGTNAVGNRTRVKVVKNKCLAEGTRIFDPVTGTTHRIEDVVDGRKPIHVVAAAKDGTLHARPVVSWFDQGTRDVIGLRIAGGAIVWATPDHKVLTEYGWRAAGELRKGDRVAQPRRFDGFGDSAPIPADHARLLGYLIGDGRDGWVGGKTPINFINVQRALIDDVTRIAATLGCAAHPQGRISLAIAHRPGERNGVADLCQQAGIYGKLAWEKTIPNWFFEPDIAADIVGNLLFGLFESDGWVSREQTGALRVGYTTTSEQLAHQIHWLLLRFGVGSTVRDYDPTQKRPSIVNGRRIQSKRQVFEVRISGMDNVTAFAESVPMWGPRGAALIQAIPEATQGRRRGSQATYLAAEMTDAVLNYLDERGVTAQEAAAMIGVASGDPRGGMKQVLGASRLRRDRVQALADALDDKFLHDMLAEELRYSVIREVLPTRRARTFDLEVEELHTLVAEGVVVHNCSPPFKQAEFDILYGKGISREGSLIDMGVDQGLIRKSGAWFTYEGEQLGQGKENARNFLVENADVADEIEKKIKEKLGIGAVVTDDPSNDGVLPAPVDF", "assay": "Fluorescence Cell-Free Homogeneous Dose Retest to Identify Inhibitors of RecA-Intein Splicing Activity. [Related pubchem assays (depositor defined):AID2097, AID2223, AID489010, AID492950]", "type": "functional"}, "[8]": {"assay": "Luminescence Cell-Based Dose Confirmation HTS to Identify Inhibitors of Platelet Dense Granule Release. [Related pubchem assays: 1663 (Primary HTS), 1678 (Summary of Project)]", "type": "functional"}, "Beta Lactamase [9]": {"biological_target": "T5, Beta Lactamase (Pseudomonas aeruginosa, UniProt Q932Y6)", "assay": "beta-lactamase reporter inhibitor potency, dose response, artefact control for TLR9-MyD88 binding inhibitor project, BLA reporter cells, FRET fluorescence (AID 588341);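 further: cell based assay in CHO-K1 cells stably expressing beta-lactamase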", "type": "cell-based"}, "[10]": {"biological_target": "Luciferin 4-monooxygenase (Photinus pyralis, UniProt P08659)", "assay": "firefly luciferase enzyme inhibitors, dose response, biochemical, luminescence (AID 1891)"}, "[11]": {"assay": "Fluorescence-based cell-based high throughput dose response assay for inhibitors of the interaction of nucleotide-binding oligomerization domain containing 2 (NOD2) and the receptor-interacting serine-threonine kinase 2 (RIPK2).", "type": "functional", "conditions": "Homo sapiens"}, "Fatty acid synthase [12]": {"biological_target": "T3, Fatty acid synthase", "assay": "FAS thioesterase domain inhibitors, dose response, biochemical, endpoint fluorescence intensity, uHTS hits (AID 624327);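 further: fluorescence from hydrolysis of an O-methyl fluorescein acyl ester substrate by the enzyme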", "type": "functional"}, "Beta Lactamase [13]": {"biological_target": "T5, Beta Lactamase", "assay": "beta-lactamase reporter inhibitor potency, dose response, artefact control for NOD2-RIPK2 interaction inhibitor project, BLA reporter cells, FRET fluorescence (AID 651552)", "type": "functional, cell-based"}, "BJ [14]": {"tested_on": "BJ", "assay": "cells", "type": "functional, cell-based", "conditions": "Homo sapiens"}, "Genome polyprotein": {"biological_target": "Genome polyprotein (dengue virus type 2, UniProt P29990)", "assay": "Dengue-2 NS5 methyltransferase inhibitors, primary screen, biochemical, confirmation dose response (AID 588689)", "type": "functional"}, "[15]": {"assay": "cytotoxicity toward DRD oncogenic fibroblasts, dose response, cell-based, non-viral oncogenic, luminescence (AID 1934)", "type": "functional", "conditions": "Homo sapiens"}, "BJ [16]": {"tested_on": "BJ", "assay": "cytotoxicity toward BJ-TERT-LT-ST fibroblasts, dose response, cell-based, RAS-independent, luminescence (AID 1935);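 further: BJ fibroblasts immortalized with TERT plus LT and ST oncogenes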", "type": "functional", "conditions": "Homo sapiens"}, "BJ [17]": {"tested_on": "BJ", "assay": "cytotoxicity toward Ras-transformed BJeLR fibroblasts, dose response, cell-based, alamar blue fluorescence, cherrypicked samples (AID 2631);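 further: confirmatory dose-response assay in RAS-dependent BJ fibroblasts engineered with TERT, LT and ST, with cytotoxicity read by fluorescence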", "type": "functional", "conditions": "Homo sapiens"}, "Troponin, cardiac muscle": {"biological_target": "Troponin, cardiac muscle (Homo sapiens, UniProt P19429+P45379+P63316)", "assay": "Fluorescence-based biochemical high throughput dose response assay for activators of the calcium sensitivity of cardiac Regulated Thin Filaments (RTF). [Related pubchem assays (depositor defined):AID493008, AID493018, AID504382, AID504383]", "type": "protein-complex assay"}, "Cysteine protease ATG4B": {"biological_target": "Cysteine protease ATG4B (Homo sapiens, UniProt Q9Y4P1)", "type": "functional"}, "Phospholipase A2": {"biological_target": "Phospholipase A2 (Homo sapiens, UniProt P04054)", "type": "functional"}},
  "note": "Active and inactive are the calls of the source.",
  "data": [
    {"smiles": "O=C(c1ccco1)N1CCCC(c2nc(-c3ccc(S(=O)(=O)NCc4ccccc4)cc3)no2)C1", "note": "(stereo unspecified)", "values": [
      {"measurement": "IC50", "setting": "Orexin receptor type 2 [1]", "value": "5.51 µM (active)"},
      {"measurement": "IC50", "setting": "Orexin receptor type 2 [2]", "value": "39.3 µM (inactive)"},
      {"measurement": "EC50", "setting": "[3]", "value": "18.6 µM (active)"},
      {"measurement": "EC50", "setting": "[4]", "value": "21.2 µM (active)"}
    ]},
    {"smiles": "O=[N+]([O-])c1c(Nc2ccc(O)cc2)cc(Cl)c2nonc12", "values": [
      {"measurement": "AC50", "setting": "INS1", "value": "5.23 µM (active)"},
      {"measurement": "IC50", "setting": "CHO", "value": "1.13 µM (active)"},
      {"measurement": "CC50", "setting": "Vero", "value": "16.9 µM (active)"},
      {"measurement": "IC50", "setting": "Large T antigen", "value": "12.3 µM (active)"},
      {"measurement": "AC50", "setting": "[5]", "value": "1.1 µM (active)"},
      {"measurement": "EC50", "setting": "BJ [6]", "value": "1.92 µM (inconclusive)"},
      {"measurement": "IC50", "setting": "Fatty acid synthase [7]", "value": "4.41 µM (active)"},
      {"measurement": "EC50", "setting": "Protein RecA", "value": "0.926 µM (active)"},
      {"measurement": "EC50", "setting": "[8]", "value": "4.2 µM (active)"},
      {"measurement": "IC50", "setting": "Beta Lactamase [9]", "value": "6.38 µM (active)"},
      {"measurement": "EC50", "setting": "[10]", "value": "> 112 µM (not active)"},
      {"measurement": "IC50", "setting": "[11]", "value": "0.969 µM (active)"},
      {"measurement": "IC50", "setting": "Fatty acid synthase [12]", "value": "5.26 µM (active)"},
      {"measurement": "IC50", "setting": "Beta Lactamase [13]", "value": "5.98 µM (active)"},
      {"measurement": "EC50", "setting": "BJ [14]", "value": "5.3 µM (inconclusive)"},
      {"measurement": "IC50", "setting": "Genome polyprotein", "value": "10.4 µM (active)"},
      {"measurement": "EC50", "setting": "[15]", "value": "2.66 µM (active)"},
      {"measurement": "EC50", "setting": "BJ [16]", "value": "3.96 µM (inconclusive)"},
      {"measurement": "EC50", "setting": "BJ [17]", "value": "0.501 µM (active)"}
    ]},
    {"smiles": "Fc1ccc(CN=C(S)NCc2ccc(F)cc2)cc1", "values": [
      {"measurement": "EC50", "setting": "Troponin, cardiac muscle", "value": "> 71.5 µM (inactive)"},
      {"measurement": "IC50", "setting": "Cysteine protease ATG4B", "value": "12.3 µM (active)"},
      {"measurement": "IC50", "setting": "Phospholipase A2", "value": "9.33 µM (active)"}
    ]}
  ]
}
